Structures can show the parent of a compound that is named as a salt.
Assays:
[1] = biological target: T1, human serotonin transporter (Homo sapiens, UniProt P31645); experiment: hSERT receptor binding ([125I]-RTI-55 radioligand); settings: membranes of HEK-293 cells transfected with human serotonin transporter cDNA; 50 pM [125I]-RTI-55; IC50 converted by Cheng-Prusoff; read-out: SERT Ki
T1 construct: expressed in transfected cells; host or cells: HEK-293
Protocol: (§1) Cell pastes of HEK-293 cells transfected with a human serotonin transporter cDNA were prepared. The cell pastes were resuspended in 400 to 700 ml of Krebs-HEPES assay buffer (25 mM HEPES, 122 mM NaCl, 3 mM KCl, 1.2 mM MgSO4, 1.3 mM CaCl2, and 11 mM glucose, pH 7.4) with a Polytron homogenizer at Setting 7 for 30 seconds. Aliquots of membranes (˜2.5 mg/ml protein) were stored in liquid nitrogen until used.
Assays were set up in FlashPlates pre-coated with 0.1% PEI in a total volume of 250 μl containing: test compound (10^−5M to 10^−12M), cell membranes, and 50 pM [^125I]-RTI-55 (Perkin Elmer, NEX-272; specific activity 2200 Ci/mmol). The reaction was incubated and gently agitated for 90 minutes at room temperature, and terminated by removal of assay volume. Plates were covered, and bound [^125I]-RTI-55 was determined using a Wallac Trilux Beta Plate Counter. Test compounds were run in duplicate, and specific binding was defined as the difference between binding in the presence and absence of 10 μM citalopram.
Excel and GraphPad Prism software were used for data calculation and analysis. IC50 values were converted to Ki values using the Cheng-Prusoff equation.

[2] = biological target: T2, human norepinephrine transporter (Homo sapiens, UniProt P23975); experiment: hNET receptor binding ([125I]-RTI-55 radioligand); settings: membranes of HEK-293 cells transfected with human norepinephrine transporter cDNA; 50 pM [125I]-RTI-55; IC50 converted by Cheng-Prusoff; read-out: NET Ki
T2 construct: expressed in transfected cells; host or cells: HEK-293
Protocol: as §1, with “norepinephrine” for “serotonin”, “setting” for “Setting”, “(5” for “(˜2.5”
The binding assay was set up in Beckman deep-well polypropylene plates with a total volume of 250 μl containing: test compound (10^−5M to 10^−12M), cell membranes, and 50 pM [^125I]-RTI-55 (Perkin Elmer, NEX-272; specific activity 2200 Ci/mmol). The reaction was incubated by gentle agitation for 90 minutes at room temperature and was terminated by filtration through Whatman GF/C filter plates using a Brandel 96-well plate harvester. Scintillation fluid (100 μl) was added to each well, and bound [^125I]-RTI-55 was determined using a Wallac Trilux Beta Plate Counter. Test compounds were run in duplicate, and specific binding was defined as the difference between binding in the presence and absence of 10 μM desipramine.
Excel and GraphPad Prism software were used for data calculation and analysis. IC50 values were converted to K, values using the Cheng-Prusoff equation.

T1 sequence (P31645 whole entry): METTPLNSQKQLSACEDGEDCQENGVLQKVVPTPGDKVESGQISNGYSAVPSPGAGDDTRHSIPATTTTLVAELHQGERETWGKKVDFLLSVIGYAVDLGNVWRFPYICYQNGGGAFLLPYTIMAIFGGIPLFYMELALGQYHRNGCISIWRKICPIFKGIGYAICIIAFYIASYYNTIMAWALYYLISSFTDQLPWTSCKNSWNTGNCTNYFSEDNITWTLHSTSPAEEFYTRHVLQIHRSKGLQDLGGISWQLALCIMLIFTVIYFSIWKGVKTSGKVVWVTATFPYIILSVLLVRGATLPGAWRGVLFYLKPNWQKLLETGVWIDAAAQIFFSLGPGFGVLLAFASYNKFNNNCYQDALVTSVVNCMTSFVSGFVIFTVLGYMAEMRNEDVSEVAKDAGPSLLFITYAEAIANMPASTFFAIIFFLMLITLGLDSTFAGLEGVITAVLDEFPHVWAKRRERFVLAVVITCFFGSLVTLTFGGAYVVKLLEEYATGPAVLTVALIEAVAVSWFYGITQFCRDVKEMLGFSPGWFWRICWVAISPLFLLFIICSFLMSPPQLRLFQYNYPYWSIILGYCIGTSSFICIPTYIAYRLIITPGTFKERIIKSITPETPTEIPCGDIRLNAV
T2 sequence (P23975 whole entry): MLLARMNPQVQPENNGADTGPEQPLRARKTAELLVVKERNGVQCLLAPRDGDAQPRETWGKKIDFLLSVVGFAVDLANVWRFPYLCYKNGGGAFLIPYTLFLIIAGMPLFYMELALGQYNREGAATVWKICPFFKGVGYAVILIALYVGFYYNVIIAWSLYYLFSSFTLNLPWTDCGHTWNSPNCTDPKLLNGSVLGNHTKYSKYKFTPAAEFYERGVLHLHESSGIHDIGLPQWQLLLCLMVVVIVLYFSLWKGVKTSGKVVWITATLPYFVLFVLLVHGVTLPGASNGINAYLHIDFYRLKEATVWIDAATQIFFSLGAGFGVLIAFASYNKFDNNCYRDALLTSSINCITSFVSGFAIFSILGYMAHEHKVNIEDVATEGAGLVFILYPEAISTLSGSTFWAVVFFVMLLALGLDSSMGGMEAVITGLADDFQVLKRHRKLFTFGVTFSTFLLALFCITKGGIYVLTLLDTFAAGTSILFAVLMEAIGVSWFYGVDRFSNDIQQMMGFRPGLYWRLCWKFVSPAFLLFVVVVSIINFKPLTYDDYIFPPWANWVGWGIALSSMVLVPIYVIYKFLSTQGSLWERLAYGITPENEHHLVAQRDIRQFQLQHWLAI

| Ki [1] [nM] | Ki [2] [nM] | Structure (SMILES) |
| --- | --- | --- |
| 307 | 610 | CSc1ccccc1-c1ccccc1CO[C@H]1CCNC1 [Example A-21, (S)-3-(2′-Methylsulfanyl-biphenyl-2-ylmethoxy)-pyrrolidine hydrochloride] |
| 91.9 | 295 | Cc1cc(C)cc(-c2ccccc2CO[C@H]2CCNC2)c1 [Example D-27, (S)-3-(3′,5′-Dimethyl-biphenyl-2-ylmethoxy)-pyrrolidine] |
| 549 | 516 | c1ccc(-c2ccc3c(c2)CCO3)c(CO[C@H]2CCNC2)c1 [Example D-32, (S)-3-[2-(2,3-Dihydro-benzofuran-5-yl)-benzyloxy]-pyrrolidine] |
| 606 | 674 | COc1ccc(-c2ccc(F)cc2CO[C@H]2CCNC2)cc1 [Example D-115, (S)-3-(4-Fluoro-4′-methoxy-biphenyl-2-ylmethoxy)-pyrrolidine] |
| 85.8 | 90.4 | Cc1cccc(-c2ccc(F)cc2CO[C@H]2CCNC2)c1 [Example D-69, (S)-3-(4-Fluoro-3′-methyl-biphenyl-2-ylmethoxy)-pyrrolidine] |
| 144 | 738 | COc1c(C)cc(-c2ccc(F)cc2CO[C@H]2CCNC2)cc1C [Example D-92, (S)-3-(4-Fluoro-4′-methoxy-3′,5′-dimethyl-biphenyl-2-ylmethoxy)-pyrrolidine] |
| 4230 | 571 | CCOc1ncccc1-c1ccccc1CO[C@H]1CCNC1 [Example D-120, (S)-2-Ethoxy-3-[2-(pyrrolidin-3-yloxymethyl)-phenyl]-pyridine] |
| 20.5 | 15.3 | Fc1ccc(-c2ccccc2CO[C@H]2CCNC2)cc1 [Example A-8, (S)-3-(4′-Fluoro-biphenyl-2-ylmethoxy)-pyrrolidine maleate] |
| 218 | 102 | Fc1ccc(Cl)c(-c2ccccc2CO[C@H]2CCNC2)c1 [Example D-18, (S)-3-(2′-Chloro-5′-fluoro-biphenyl-2-ylmethoxy)-pyrrolidine] |
| 220 | 112 | Cc1ccc(-c2ccc(F)cc2CO[C@H]2CCNC2)cc1C [Example D-104, (S)-3-(4-Fluoro-3′,4′-dimethyl-biphenyl-2-ylmethoxy)-pyrrolidine] |
| 101 | 41.6 | Clc1ccc(-c2ccccc2CO[C@H]2CCNC2)cc1 [Example D-12, (S)-3-(4′-Chloro-biphenyl-2-ylmethoxy)-pyrrolidine] |
| 110 | 21.3 | Cc1ccc(-c2ccccc2CO[C@H]2CCNC2)cc1C [Example D-7, (S)-3-(3′,4′-Dimethyl-biphenyl-2-ylmethoxy)-pyrrolidine] |
| 1090 | 650 | Oc1ccccc1-c1ccc(F)cc1CO[C@H]1CCNC1 [Example D-103, (S)-4′-Fluoro-2′-(pyrrolidin-3-yloxymethyl)-biphenyl-2-ol] |
| 292 | 187 | COc1ccc(-c2ccc(F)cc2CO[C@H]2CCNC2)cc1C [Example D-98, (S)-3-(4-Fluoro-4′-methoxy-3′-methyl-biphenyl-2-ylmethoxy)-pyrrolidine] |
| 356 | 205 | COc1ccccc1-c1ccc(F)cc1CO[C@H]1CCNC1 [Example D-72, (S)-3-(4-Fluoro-2′-methoxy-biphenyl-2-ylmethoxy)-pyrrolidine] |
| ≥ 10000 | 4180 | c1ccc(COc2ccccc2-c2ccccc2CO[C@H]2CCNC2)cc1 [Example D-48, (S)-3-(2′-Benzyloxy-biphenyl-2-ylmethoxy)-pyrrolidine] |
| 74.6 | 845 | Fc1cccc(-c2cccnc2CO[C@H]2CCNC2)c1F [Example C-2, (S)-3-(2,3-Difluoro-phenyl)-2-(pyrrolidin-3-yloxymethyl)-pyridine fumarate] |

| Ki [1] [nM] | Ki [2] [nM] | Structure (SMILES) |
| --- | --- | --- |
| 108 | 60 | Fc1ccc(-c2ccc(F)c(F)c2)c(CO[C@H]2CCNC2)c1 [Example D-71, (S)-(4,3′,4′-Trifluoro-biphenyl-2-ylmethoxy)-pyrrolidine] |
| 794 | 993 | COc1ccc(Cl)cc1-c1ccc(F)cc1CO[C@H]1CCNC1 [Example D-61, (S)-3-(5′-Chloro-4-fluoro-2′-methoxy-biphenyl-2-ylmethoxy)-pyrrolidine] |
| 3770 | 763 | N#Cc1cccc(-c2ccc(F)cc2F)c1CO[C@H]1CCNC1 [Example E-2, (S)-2′,4′-Difluoro-2-(pyrrolidin-3-yloxymethyl)-biphenyl-3-carbonitrile fumarate] |
| 5460 | 5410 | N#Cc1ccc(-c2ccccc2CO[C@H]2CCNC2)cc1 [Example D-51] |
| 150 | 635 | COc1ccc(-c2ccccc2CO[C@H]2CCNC2)cc1OC [Example D-36, (S)-3-(3′,4′-Dimethoxy-biphenyl-2-ylmethoxy)-pyrrolidine] |
| 201 | ≥ 10000 | FC(F)(F)c1ccc(-c2ccccc2CO[C@H]2CCNC2)cc1 [Example D-55, (S)-3-(4′-Trifluoromethyl-biphenyl-2-ylmethoxy)-pyrrolidine] |
| 268 | 189 | Cc1ccc(C)c(-c2ccc(F)cc2CO[C@H]2CCNC2)c1 [Example D-89, (S)-3-(4-Fluoro-2′,5′-dimethyl-biphenyl-2-ylmethoxy)-pyrrolidine] |
| 286 | 148 | Fc1ccc(-c2ccccc2OCc2ccccc2)c(CO[C@H]2CCNC2)c1 [Example D-97, (S)-3-(2′-Benzyloxy-4-fluoro-biphenyl-2-ylmethoxy)-pyrrolidine] |
| 758 | 23.9 | Fc1ccccc1-c1c(F)cccc1CO[C@H]1CCNC1 [Example A-32, (3S)-3-[(2′,6-difluorobiphenyl-2-yl)methoxy]pyrrolidine hydrochloride] |
| 24.8 | 108 | CSc1cccc(-c2ccccc2CO[C@H]2CCNC2)c1 [Example D-20, (S)-3-(3′-Methylsulfanyl-biphenyl-2-ylmethoxy)-pyrrolidine] |
| 124 | 269 | COc1c(C)cc(-c2ccccc2CO[C@H]2CCNC2)cc1C [Example D-25, (S)-(4′-Methoxy-3′,5′-dimethyl-biphenyl-2-ylmethoxy)-pyrroldine] |
| 2970 | 4230 | COc1ccc(C(C)C)cc1-c1ccccc1CO[C@H]1CCNC1 [Example D-49, (S)-(5′-Isopropyl-2′-methoxy-biphenyl-2-ylmethoxy)-pyrrolidine] |
| 93.3 | 7.6 | Cc1ccc(-c2ccccc2CO[C@H]2CCNC2)cc1 [Example A-2, (S)-3-(4′-Methyl-biphenyl-2-ylmethoxy)-pyrrolidine hydrochloride] |
| 769 | 659 | c1ccc(-c2cccc3ncccc23)c(CO[C@H]2CCNC2)c1 [Example D-122, (S)-5-[2-(Pyrrolidin-3-yloxymethyl)-phenyl]-quinoline] |
| 444 | 6870 | CC(=O)c1ccc(-c2ccc(F)cc2CO[C@H]2CCNC2)cc1 [Example D-78, (S)-1-[4′-Fluoro-2′-(pyrrolidin-3-yloxymethyl)-biphenyl-4-yl]-ethanone] |
| 232 | 14.2 | Fc1ccc(CO[C@H]2CCNC2)c(-c2cccc(F)c2F)c1 [Example A-24, (S)-(5,2′,3′-Trifluoro-biphenyl-2-ylmethoxy)-pyrrolidine hydrochloride] |

| Structure (SMILES) | Ki [1] [nM] | Ki [2] [nM] |
| --- | --- | --- |
| COc1ccc(F)cc1-c1ccccc1CO[C@H]1CCNC1 [Example A-22, fumarate] | 136 | ≥ 10000 |
